Test [1] has as its system GM1 production in Jurkat cells. Briefly: cells. The class given is cell-based.
The target of test [2] is glucosylceramide synthase (GCS) (Homo sapiens (Human), UniProt Q16739). Nature of the test: Evaluation of inhibitory activities against GCS (A549 cell lysate, NBD C6-ceramide, HPLC). The class given is biochemical. The procedure:
The inhibitory activities of the compounds of the present invention against GCS were evaluated, as follows, according to the method described in the known literature (Hayashi Y et al., A sensitive and reproducible assay to measure the activity of glucosylceramide synthase and lactosylceramide synthase using HPLC and fluorescent substrates, Analytical Biochemistry 345 (2005) 181-186). Ibiglustat, known as a GCS inhibitor, was used as a control.
After the cells attached to the culture dish were washed with phosphate buffered saline (PBS), the cells were scraped off with a cell scraper and then centrifuged (4000 rpm, 3 min, 4 °C) to collect the cells in a 50 ml tube. The cell pellets were suspended in a lysis buffer (50 mM HEPES, pH 7.3, containing 1× the protease/phosphatase inhibitor cocktail), lysed by sonication, and then the lysate was centrifuged (13000 rpm, 10 min, 4° C.). The obtained supernatant was used for the quantitative analysis of proteins. The amount of proteins was measured using the BCA protein assay kit, using bovine serum albumin as a standard.
Enzymatic reactions were initiated by sequentially adding the following reaction materials to a 96 deep-well plate. Thereafter, the enzymatic reactions were performed at 37° C. for 90 minutes.
The enzymatic reactions were stopped by adding 100 μl of chloroform/methanol (2:1, v/v). […] The lower layer (50 μl) was transferred to a new 96 deep-well plate and dried with a reduced concentrator.
Lipids were dissolved in 100 μl of isopropyl alcohol/n-hexane/H2O (55:44:1, v/v/v) and then transferred to a glass vial for HPLC (Agilent, 8004-HP-H/i3u). The sample (100 μl) was automatically loaded onto a normal-phase column (Intersil SIL 150A-5, 4.6×250 mm, GL Sciences, Japan) and then eluted at a flow rate of 2.0 ml/min with isopropyl alcohol/n-hexane/H2O (55:44:1, v/v/v). The fluorescence thereof was measured with a fluorescence detector (Agilent, 1260 FLD Spectra), using 470 nm and 530 nm as excitation and emission wavelengths, respectively.
Data analysis was performed by the following equations.
% Area (Sample)=Area (GlcCer)/[Area (Cer)+Area (GlcCer)]×100%
GCS activity=[Area (Sample)−Area (ibiglustat)]/[Area (DMSO)−Area (ibiglustat)]×100
The obtained % GCS activity data was analyzed with the software GraphPad Prism (Ver 5.01) to calculate the IC50 values.

The mark [3] stands for this setting: % GCS activity, A549 cell lysate, 37° C. for 90 minutes, read-out: IC50.

A word on the IC50: it is the concentration that gives 50% inhibition.

Molecules are shown by their SMILES. Read-outs that look alike come from different tables or passages of the source.

glucosylceramide synthase (GCS), sequence (Q16739 whole entry): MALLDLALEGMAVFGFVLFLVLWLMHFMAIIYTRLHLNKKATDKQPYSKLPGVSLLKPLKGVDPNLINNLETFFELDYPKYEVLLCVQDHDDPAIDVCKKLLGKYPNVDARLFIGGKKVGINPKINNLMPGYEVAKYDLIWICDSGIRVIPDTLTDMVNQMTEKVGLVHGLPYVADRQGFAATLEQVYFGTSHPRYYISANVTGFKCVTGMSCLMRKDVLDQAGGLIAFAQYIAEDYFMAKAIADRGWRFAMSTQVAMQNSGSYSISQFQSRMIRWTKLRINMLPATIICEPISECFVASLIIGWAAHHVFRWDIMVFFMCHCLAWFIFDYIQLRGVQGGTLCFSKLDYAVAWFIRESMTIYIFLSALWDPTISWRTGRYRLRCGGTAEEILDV

As for `CC1(C)Cc2cc(-c3ccc(OCC(F)(F)F)cc3Cl)ccc2[C@@H]1NC(=O)O[C@@H]1CN2CCC1CC2` [Example 55, (S)-quinuclidin-3-yl((R)-5-(2-chloro-4-(2,2,2-trifluoroethoxy)phenyl)-2,2-dimethyl-2,3-dihydro-1H-inden-1-yl)carbamate], the IC50 in test [1] (Homo sapiens, Jurkat, 72 h) came out at 2.2 nM; in test [2] it was 0.63 nM.

For the compound `CCCOc1ccc(-c2cc3c(cc2C)[C@H](NC(=O)O[C@@H]2CN4CCC2CC4)C(C)(C)C3)cc1` [Example 121, (S)-quinuclidin-3-yl((R)-2,2,6-trimethyl-5-(4-propoxyphenyl)-2,3-dihydro-1H-inden-1-yl)carbamate], the IC50 in test [1] (Homo sapiens, Jurkat, 72 h) was 2.79 nM; in test [2], 0.28 nM.

As to `CC1(C)Cc2cc(-c3cc(F)cc(OCC(F)(F)F)c3)ccc2[C@@H]1NC(=O)O[C@@H]1CN2CCC1CC2` [Example 51, (S)-quinuclidin-3-yl((R)-5-(3-fluoro-5-(2,2,2-trifluoroethoxy)phenyl)-2,2-dimethyl-2,3-dihydro-1H-inden-1-yl) carbamate], the IC50 in test [1] (read-out: IC50) turned out to be 9.1 nM; in test [2] (setting [3]), 0.65 nM.

`CCCc1ccc(-c2ccc3c(c2)CCC(C)(C)[C@H]3NC(=O)O[C@@H]2CN3CCC2CC3)cc1` [Example 140, (S)-quinuclidin-3-yl((R)-2,2-dimethyl-6-(4-propylphenyl)-1,2,3,4-tetrahydronaphthalen-1-yl)carbamate]: the IC50 in test [1] (Homo sapiens, Jurkat, 72 h) is 2.5 nM; in test [2], 0.29 nM.

For `CC(C)Oc1cc(F)cc(-c2ccc3c(c2)CC(C)(C)[C@H]3NC(=O)O[C@@H]2CN3CCC2CC3)c1` [Example 49, (S)-quinuclidin-3-yl((R)-5-(3-fluoro-5-isopropoxyphenyl)-2,2-dimethyl-2,3-dihydro-1H-inden-1-yl)carbamate], the IC50 in test [1] (Homo sapiens, Jurkat, 72 h) came out at 9.4 nM; in test [2] it was 0.58 nM.

Regarding `CC(C)Cc1cccc(-c2ccc3c(c2)CCC(C)(C)[C@H]3NC(=O)O[C@@H]2CN3CCC2CC3)c1` [Example 157, (S)-quinuclidin-3-yl((R)-6-(3-isobutylphenyl)-2,2-dimethyl-1,2,3,4-tetrahydronaphthalen-1-yl)carbamate], the IC50 in test [1] (Homo sapiens, Jurkat, 72 h) amounted to 2.64 nM; in test [2], 0.81 nM.

Turning to `CC(C)Oc1ccc(-c2ccc3c(c2)CCC(C)(C)[C@H]3NC(=O)O[C@@H]2CN3CCC2CC3)cc1` [Example 167, (S)-quinuclidin-3-yl((R)-6-(4-isopropoxyphenyl)-2,2-dimethyl-1,2,3,4-tetrahydronaphthalen-1-yl)carbamate], the IC50 in test [1] (Homo sapiens, Jurkat, 72 h) worked out at 3.16 nM; in test [2], 0.37 nM.

Turning to `CCOc1c(C)cc(-c2cc3c(cc2F)[C@H](NC(=O)O[C@@H]2CN4CCC2CC4)C(C)(C)CC3)cc1C` [Example 195, (S)-quinuclidin-3-yl((R)-6-(4-ethoxy-3,5-dimethylphenyl)-7-fluoro-2,2-dimethyl-1,2,3,4-tetrahydronaphthalen-1-yl)carbamate], the IC50 in test [1] (Homo sapiens, Jurkat, 72 h) is 8.3 nM; in test [2], 1.29 nM.

`CCc1ccc(-c2cc3c(cc2C)[C@H](NC(=O)O[C@@H]2CN4CCC2CC4)C(C)(C)C3)cc1` [Example 115, (S)-quinuclidin-3-yl((R)-5-(4-ethylphenyl)-2,2,6-trimethyl-2,3-dihydro-1H-inden-1-yl)carbamate]: the IC50 in test [1] (Homo sapiens, Jurkat, 72 h) was 5.09 nM; in test [2] it was 0.43 nM.

Take `Cc1cc(-c2cc3c(cc2F)[C@H](NC(=O)O[C@@H]2CN4CCC2CC4)C(C)(C)C3)ccc1OC(F)F` [Example 107, (S)-quinuclidin-3-yl((R)-5-(4-(difluoromethoxy)-3-methylphenyl)-6-fluoro-2,2-dimethyl-2,3-dihydro-1H-inden-1-yl)carbamate]: the IC50 in test [1] (Homo sapiens, Jurkat, 72 h) came to 16 nM; in test [2] it was 0.93 nM.

Turning to `CCCc1ccc(-c2cc3c(cc2C)[C@H](NC(=O)O[C@@H]2CN4CCC2CC4)C(C)(C)C3)cc1` [Example 116, (S)-quinuclidin-3-yl((R)-2,2,6-trimethyl-5-(4-propylphenyl)-2,3-dihydro-1H-inden-1-yl)carbamate], the IC50 in test [1] (Homo sapiens, Jurkat, 72 h) amounted to 3.82 nM; in test [2] it was 0.31 nM.

Regarding `CC(C)(C)Oc1ccc(-c2ccc3c(c2)CC(C)(C)[C@H]3NC(=O)O[C@@H]2CN3CCC2CC3)c(Cl)c1` [Example 42, (S)-quinuclidin-3-yl((R)-5-(4-(tert-butoxy)-2-chlorophenyl)-2,2-dimethyl-2,3-dihydro-1H-inden-1-yl)carbamate], the IC50 in test [1] (Homo sapiens, Jurkat, 72 h) was found to be 2.6 nM; in test [2], 0.3 nM.

`CCCCc1ccc(-c2ccc3c(c2)CCC(C)(C)[C@H]3NC(=O)O[C@@H]2CN3CCC2CC3)cc1` [Example 142, (S)-quinuclidin-3-yl((R)-6-(4-butylphenyl)-2,2-dimethyl-1,2,3,4-tetrahydronaphthalen-1-yl) carbamate]: the IC50 in test [1] (read-out: IC50) came out at 1.4 nM; in test [2] (setting [3]), 0.23 nM.

With `CCCc1cccc(-c2cc3c(cc2F)[C@H](NC(=O)O[C@@H]2CN4CCC2CC4)C(C)(C)C3)c1` [Example 72, (S)-quinuclidin-3-yl((R)-6-fluoro-2,2-dimethyl-5-(3-propylphenyl)-2,3-dihydro-1H-inden-1-yl)carbamate], the IC50 in test [1] (Homo sapiens, Jurkat, 72 h) amounted to 15.9 nM; in test [2], 1.19 nM.

As to `Cc1cc(-c2cc3c(cc2F)[C@H](NC(=O)O[C@@H]2CN4CCC2CC4)C(C)(C)CC3)cc(C)c1OC(C)C` [Example 182, (S)-quinuclidin-3-yl((R)-7-fluoro-6-(4-isopropoxy-3,5-dimethylphenyl)-2,2-dimethyl-1,2,3,4-tetrahydronaphthalen-1-yl)carbamate], the IC50 was found to be 12.9 nM in test [1] (Homo sapiens, Jurkat, 72 h) and 3.1 nM in test [2].

`CCOc1cc2c(cc1-c1ccc(OC(C)C)c(Cl)c1)CC(C)(C)[C@H]2NC(=O)O[C@@H]1CN2CCC1CC2` [Example 137, (S)-quinuclidin-3-yl((R)-5-(3-chloro-4-isopropoxyphenyl)-6-ethoxy-2,2-dimethyl-2,3-dihydro-1H-inden-1-yl)carbamate]: the IC50 in test [1] (Homo sapiens, Jurkat, 72 h) amounted to 12.8 nM; in test [2] it was 3.04 nM.

With `COc1ccc(-c2cc3c(cc2C)[C@H](NC(=O)O[C@@H]2CN4CCC2CC4)C(C)(C)C3)c(F)c1` [Example 126, (S)-quinuclidin-3-yl((R)-5-(2-fluoro-4-methoxyphenyl)-2,2,6-trimethyl-2,3-dihydro-1H-inden-1-yl)carbamate], the IC50 in test [1] (Homo sapiens, Jurkat, 72 h) came to 18 nM; in test [2] it was 1.48 nM.

On to `CCOc1cccc(-c2ccc3c(c2)CCC(C)(C)[C@H]3NC(=O)O[C@@H]2CN3CCC2CC3)c1` [Example 154, (S)-quinuclidin-3-yl((R)-6-(3-ethoxyphenyl)-2,2-dimethyl-1,2,3,4-tetrahydronaphthalen-1-yl)carbamate], for which the IC50 is 2.9 nM in test [1] (Homo sapiens, Jurkat, 72 h) and 0.38 nM in test [2].

On to `CCOc1ccc(-c2ccc3c(c2)CC(C)(C)[C@H]3NC(=O)O[C@@H]2CN3CCC2CC3)cc1C` [Example 46, (S)-quinuclidin-3-yl((R)-5-(4-ethoxy-3-methylphenyl)-2,2-dimethyl-2,3-dihydro-1H-inden-1-yl)carbamate], for which the IC50 came to 11.6 nM in test [1] (Homo sapiens, Jurkat, 72 h) and 2.19 nM in test [2].

On to `CC(C)COc1cc(Cl)cc(-c2cc3c(cc2F)[C@H](NC(=O)O[C@@H]2CN4CCC2CC4)C(C)(C)C3)c1` [Example 112, (S)-quinuclidin-3-yl((R)-5-(3-chloro-5-isobutoxyphenyl)-6-fluoro-2,2-dimethyl-2,3-dihydro-1H-inden-1-yl)carbamate], for which the IC50 in test [1] (Homo sapiens, Jurkat, 72 h) was 10.6 nM; in test [2], 1.03 nM.

For `CCCc1ccc(-c2cc3c(cc2OCC)[C@H](NC(=O)O[C@@H]2CN4CCC2CC4)C(C)(C)C3)cc1` [Example 128, (S)-quinuclidin-3-yl((R)-6-ethoxy-2,2-dimethyl-5-(4-propylphenyl)-2,3-dihydro-1H-inden-1-yl)carbamate], the IC50 in test [1] (Homo sapiens, Jurkat, 72 h) is 6.49 nM; in test [2], 1.8 nM.

As for `COc1c(C)cc(-c2ccc3c(c2)CCC(C)(C)[C@H]3NC(=O)O[C@@H]2CN3CCC2CC3)cc1C` [Example 147, (S)-quinuclidin-3-yl((R)-6-(4-methoxy-3,5-dimethylphenyl)-2,2-dimethyl-1,2,3,4-tetrahydronaphthalen-1-yl) carbamate], the IC50 was found to be 9.4 nM in test [1] (read-out: IC50) and 1.18 nM in test [2] (setting [3]).

As to `COc1cccc(-c2cc3c(cc2F)[C@H](NC(=O)O[C@@H]2CN4CCC2CC4)C(C)(C)CC3)c1` [Example 184, (S)-quinuclidin-3-yl((R)-7-fluoro-6-(3-methoxyphenyl)-2,2-dimethyl-1,2,3,4-tetrahydronaphthalen-1-yl)carbamate], the IC50 in test [1] (Homo sapiens, Jurkat, 72 h) is 2.29 nM; in test [2], 0.3 nM.

Values taken from patent US20240262819A1, “NOVEL COMPOUNDS HAVING INHIBITORY ACTIVITY AGAINST GLUCOSYLCERAMIDE SYNTHASE OR PHARMACEUTICALLY ACCEPTABLE SALT THEREOF, PROCESSES FOR PREPARING THE SAME, AND PHARMACEUTICAL COMPOSITIONS COMPRISING THE SAME” (YUHAN CORPORATION, priority 2021, published 2024).
